In article PMC7470127, “Design, synthesis, and evaluation of 1, 4-benzodioxan-substituted chalcones as selective and reversible inhibitors of human monoamine oxidase B” (Journal of Enzyme Inhibition and Medicinal Chemistry, 2020):
Where two headings read alike, the source gives them in different places.

Tests used:
hMAO-B [1] = target: T1, hMAO-B (Homo sapiens, UniProt P27338); conditions: cited from earlier work
T1 sequence (P27338 1-520): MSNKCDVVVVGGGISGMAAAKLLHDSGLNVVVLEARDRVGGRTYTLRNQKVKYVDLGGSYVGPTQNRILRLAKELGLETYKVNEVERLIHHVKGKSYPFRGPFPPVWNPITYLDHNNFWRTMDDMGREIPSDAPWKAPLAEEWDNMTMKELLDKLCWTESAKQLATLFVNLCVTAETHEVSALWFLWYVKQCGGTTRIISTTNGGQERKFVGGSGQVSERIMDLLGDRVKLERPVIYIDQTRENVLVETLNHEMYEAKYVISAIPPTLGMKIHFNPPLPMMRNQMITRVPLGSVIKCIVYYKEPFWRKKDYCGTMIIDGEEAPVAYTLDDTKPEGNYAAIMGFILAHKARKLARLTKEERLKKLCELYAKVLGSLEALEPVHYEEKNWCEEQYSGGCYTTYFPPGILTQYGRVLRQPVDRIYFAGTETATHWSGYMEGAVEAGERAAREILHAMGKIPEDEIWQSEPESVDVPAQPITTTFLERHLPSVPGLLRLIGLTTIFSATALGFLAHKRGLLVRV

hMAO-B [2] = target: T1, hMAO-B; assay: Reversibility study: time-dependent inhibition of hMAO-B; type: biochemical; conditions: for IC80: compounds used at the concentration of their IC80; for time after which the residual activity of hMAO-B began to increase: inhibitor at IC80; for reversibility of hMAO-B inhibition: inhibitor at IC80, activity followed for 120 min
Procedure: Control experiments without inhibitors were run simultaneously. The enzymatic activity was determined as described above. The percentage of enzyme activity was plotted against the incubation time to determine time-dependent enzyme inhibition.

hMAO-B [3] = target: T1, hMAO-B; assay: Enzyme kinetic study (Lineweaver–Burk plots); type: biochemical; conditions: benzylamine 1, 2, 4 and 8 mM
Procedure: To evaluate the mode of MAO-B inhibition, the representative compound was evaluated in substrate-dependent kinetic experiments performed as previously described. Sets of Lineweaver–Burk plots were generated. The reciprocal MAO-B activity was plotted against the reciprocal substrate concentration. […] The enzymatic reactions and measurements were performed using human MAO-B assay conditions as described above for the determination of IC50 values.

hMAO-B [4] = target: T1, hMAO-B; assay: hMAO inhibition assay (Amplex Red fluorescence), hMAO-B, benzylamine substrate; type: biochemical; conditions: for Selectivity Index (SI): SI = IC50 (hMAO-A)/IC50 (hMAO-B); for fold higher inhibitory potency than 4: from IC50, versus compound 4; for inhibition at 1 µM: tested concentration 1 µM
Procedure: The hMAO inhibition assay was performed as previously described. […] The test compounds were dissolved in DMSO as stock solutions (10 mM) and diluted with sodium phosphate buffer (50 mM, pH 7.4) to the corresponding concentrations. […] The specific fluorescence emission was calculated after subtraction of the background activity. The background activity was determined from wells containing all components except the hMAO isoforms, which were replaced by a sodium phosphate buffer solution. The percentage inhibition was calculated by the following expression: (1 – IFi/IFc) × 100, in which IFi and IFc are the fluorescence intensities obtained for hMAO in the presence and absence of inhibitors after subtracting the respective background.

BV2 microglia cells = assay: MTT assay, cytotoxicity; type: cell-based; conditions: 5 and 25 µM for 24 h
Procedure: The 3–(4, 5-dimethylthiazol-2-yl)-2,5-diphenyltetrazolium (MTT) assay was performed as previously described. BV2 Cells were plated at 5000 cells per well and allowed to grow at 37 °C overnight. Then the cells were treated with various concentrations of the tested compounds for 24 h at 37 °C in a humidified atmosphere with 5% CO2, 0.5% DMSO acted as the vehicle control. The cell culture medium was then removed, followed by the addition of fresh cell culture medium containing 5.0 g/L MTT (20 µL/per well) and incubation at 37 °C in a humidified, 5% CO2 atmosphere for 4 h. After this incubation period, the cell culture medium was removed and the formed formazan crystals dissolved in 100% DMSO. The absorbance was measured at 570 nm in a multi-well plate reader. The results are expressed as % relative cell viability compared to DMSO vehicle control.

hMAO-A = target: T2, hMAO-A (Homo sapiens, UniProt P21397); assay: hMAO inhibition assay (Amplex Red fluorescence), hMAO-A, p-tyramine substrate; type: biochemical; conditions: recombinant hMAO-A
T2 sequence (P21397 1-527): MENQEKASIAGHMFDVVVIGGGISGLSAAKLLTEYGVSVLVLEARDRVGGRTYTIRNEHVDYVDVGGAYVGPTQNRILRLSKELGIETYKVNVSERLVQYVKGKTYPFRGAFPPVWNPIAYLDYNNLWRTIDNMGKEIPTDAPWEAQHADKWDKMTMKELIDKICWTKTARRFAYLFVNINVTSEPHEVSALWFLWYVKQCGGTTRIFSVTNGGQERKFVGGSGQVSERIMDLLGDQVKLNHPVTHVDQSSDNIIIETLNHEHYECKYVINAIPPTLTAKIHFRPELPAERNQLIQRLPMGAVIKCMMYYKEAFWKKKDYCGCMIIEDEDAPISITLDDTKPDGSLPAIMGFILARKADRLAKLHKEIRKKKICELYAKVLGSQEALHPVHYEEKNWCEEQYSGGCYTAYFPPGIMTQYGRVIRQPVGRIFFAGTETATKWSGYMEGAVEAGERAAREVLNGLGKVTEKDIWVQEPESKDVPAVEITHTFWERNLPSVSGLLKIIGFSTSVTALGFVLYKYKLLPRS
Procedure: The hMAO inhibition assay was performed as previously described. Adequate amounts of recombinant hMAO-A/B were acquired and adjusted to 12.5 µg/mL or 75 µg/mL for hMAO-A or hMAO-B, respectively, with sodium phosphate buffer (50 mM, pH 7.4). The test compounds were dissolved in DMSO as stock solutions (10 mM) and diluted with sodium phosphate buffer (50 mM, pH 7.4) to the corresponding concentrations. Then the test compounds (20 µL) and hMAO (80 µL) were incubated for 15 min at 37 °C in a flat, black-bottomed 96-well microtest plate in the dark. The reaction was initiated by adding Amplex Red reagent (200 µM, final concentration), horseradish peroxidase (2 U/mL, final concentration), and 2 mM p-tyramine for hMAO-A or 2 mM benzylamine (final concetration) for hMAO-B and incubated at 37 °C for 20 min. Activity was quantified in a multi detection microplate fluorescence reader (SpectraMax M5, Molecular Devices, USA) based on the fluorescence generated (excitation, 545 nm; emission, 590 nm). The specific fluorescence emission was calculated after subtraction of the background activity. The background activity was determined from wells containing all components except the hMAO isoforms, which were replaced by a sodium phosphate buffer solution. The percentage inhibition was calculated by the following expression: (1 – IFi/IFc) × 100, in which IFi and IFc are the fluorescence intensities obtained for hMAO in the presence and absence of inhibitors after subtracting the respective background. […]

[5] = recombinant hMAO-B, read-out: hMAO-B IC50

Row | IC80 (hMAO-B [2]) [nM] | time after which the residual activity of hMAO-B began to increase (hMAO-B [2]) [min] | reversibility of hMAO-B inhibition (hMAO-B [2]) | melting point [°C] | Selectivity Index (SI) (hMAO-B [4]) | IC50 (hMAO-B [4]; [5]) [nM] | inhibition at 1 µM (hMAO-B [4]) [%] | IC50 (hMAO-A) [nM] | SMILES | also measured
1 |  |  |  |  |  |  |  |  | Cc1ccc(C(=O)/C=C/c2ccc(F)c(Br)c2)s1 [Compound 4h] | inhibition mode of hMAO-B (hMAO-B [1]; ref [13]): reversible inhibition
2 |  |  |  |  |  |  |  |  | COc1ccc(C(=O)/C=C/c2ccc(Cl)cc2)c(O)c1 [Compound 5i] | inhibition mode of hMAO-B (hMAO-B [1]; ref [12]): irreversible inhibition
3 |  |  |  |  |  |  |  |  | Brc1cccc(COc2ccc3c(c2)OCCO3)c1 [Compound 7c] | inhibition mode of hMAO-B (hMAO-B [1]; ref [17]): reversible inhibition
4 | 280 | 20 | reversible | 119.3 to 120.4 | >727 | 55 ± 2 | 93.3 | > 40000 | O=C(/C=C/c1ccc2c(c1)OCCO2)c1cccc(Br)c1 [Compound 16, (E)-1-(3-bromophenyl)-3-(2,3-dihydrobenzo[b][1,4]dioxin-6-yl)prop-2-en-1-one] | mode of hMAO-B inhibition (hMAO-B [3]): competitive; fold higher inhibitory potency than 4 (hMAO-B [4]): 1.7–4 fold; Cell viability of BV2 cells (BV2 microglia cells): no considerable decrease in cellular viability
5 | 280 | 20 | reversible | 125.5 to 127 | >702 | 57 ± 4 | 93.4 | > 40000 | O=C(/C=C/c1ccc2c(c1)OCCO2)c1cccc(Cl)c1 [Compound 17, (E)-1-(3-chlorophenyl)-3-(2,3-dihydrobenzo[b][1,4]dioxin-6-yl)prop-2-en-1-one] | mode of hMAO-B inhibition (hMAO-B [3]): competitive; fold higher inhibitory potency than 4 (hMAO-B [4]): 1.7–4 fold; Cell viability of BV2 cells (BV2 microglia cells): no considerable decrease in cellular viability
6 |  |  |  | 136.2 to 137.3 | >125 | 320 ± 50 | 78.4 | > 40000 | O=C(/C=C/c1ccc2c(c1)OCCO2)c1cc(Cl)ccc1O [Compound 25, (E)-1-(5-chloro-2-hydroxyphenyl)-3-(2,3-dihydrobenzo[b][1,4]dioxin-6-yl)prop-2-en-1-one] | 
7 |  |  |  | 155.7 to 156.1 |  |  | 62.3 | > 40000 | O=C(/C=C/c1ccc2c(c1)OCCO2)c1ccc(Cl)cc1O [Compound 26, (E)-1-(4-chloro-2-hydroxyphenyl)-3-(2,3-dihydrobenzo[b][1,4]dioxin-6-yl)prop-2-en-1-one] | 
8 |  |  |  | 111.8 to 112.6 | >143 | 280 ± 2 | 80.4 | > 40000 | O=C(/C=C/c1ccc2c(c1)OCO2)c1cccc(Br)c1 [Compound 27, (E)-3-(benzo[d][1,3]dioxol-5-yl)-1–(3-bromophenyl)prop-2-en-1-one] | 
9 | 200 |  |  |  |  |  |  |  | C#CCN[C@@H]1CCc2ccccc21 [rasagiline, reference compound] | 
10 | 60 | 15 | reversible |  |  |  |  |  | C[C@H](NCc1ccc(OCc2cccc(F)c2)cc1)C(N)=O [safinamide, reference compound] | 

Row | SMILES | IC80 (hMAO-B [2]) [nM] | time after which the residual activity of hMAO-B began to increase (hMAO-B [2]) [min] | reversibility of hMAO-B inhibition (hMAO-B [2]) | melting point [°C] | Selectivity Index (SI) (hMAO-B [4]) | IC50 (hMAO-B [4]; [5]) [nM] | inhibition at 1 µM (hMAO-B [4]) [%] | IC50 (hMAO-A) [nM] | also measured
11 | O=C(/C=C/c1ccc2c(c1)OCCO2)c1ccc(F)c(Br)c1 [Compound 22, (E)-1-(3-bromo-4-fluorophenyl)-3-(2,3-dihydrobenzo[b][1,4]dioxin-6-yl)prop-2-en-1-one] | 190 | 20 | reversible |  |  |  | 95.6 | > 40000 | mode of hMAO-B inhibition (hMAO-B [3]): competitive; IC50 (hMAO-B [4]): 26 ± 1 nM; Cell viability of BV2 cells (BV2 microglia cells): no considerable decrease in cellular viability
